The nature of test [1]: Selectivity is the ratio of mean EC50 value against […] cells to that of EC50 value against Plasmodium falciparum. Type of test: functional.
A further test has as its system Plasmodium falciparum. As to the kind of experiment: In vitro antimalarial activity against chloroquine-sensitive Plasmodium falciparum FCR3. It counts as functional, organism-based.
The test system of another test is FM3A. As to the kind of experiment: In vitro cytotoxic activity against mouse mammary tumor FM3A cells. It counts as functional, cell-based.

In general, EC50 refers to the concentration giving half of the maximal effect. High values mean a need for much substance, low ones an effect from little substance.

With `C=C[C@H]1CN2CC[C@H]1C[C@H]2[C@H](O)c1ccnc2ccc(OC)cc12` [QUININE], the Selectivity in test [1] is 910. Also, the values for the EC50 in the test on Plasmodium falciparum and in the test with FM3A were 0.11 µM and 100 µM, respectively.

Source of the values: ChEMBL document CHEMBL1133247, “Synthesis of novel ferrocenyl sugars and their antimalarial activities” (Bioorg Med Chem Lett, 2000).
